From patent US9416144B2, “Benzoxazine oxazolidinone compound, preparation method and application thereof” (priority 2012, dated 2016)
Values after ≈ are worked out from the molar mass of the structure shown.

Assays:
[1] = tested on: Staphylococcus aureus resistant strains (6 strains); experiment: In vitro antibacterial activity, MIC by agar double dilution method; assay type: cell-based; conditions: clinical isolates
Source text: (§1) Experimental method: The agar double dilution method (Antimicrob. Agents and Chemother, 40, 1996, 720-726) was used to determine the minimum inhibitory concentration (MIC) of the series of compounds of the invention and the positive control drug linezolid for the test strains. The multipoint inoculation system (Denley A400) was employed to inoculate the bacteria on the agar plate surface with different concentrations of drugs; inoculation amount on each point was about 10^6 CFU/mL. The plates were incubated at 35° C. for 16 hrs before the results were observed. The lowest drug concentration contained in the Petri dish without bacterial growth was used as the minimum inhibitory concentration (MIC value) of the drug fir that strain.
(§2) Test strains: All the test strains were clinically isolated pathogens which were collected from the Nanjing region, and they were re-identified by routine methods before use. 31 strains of the clinically isolated pathogens were chosen, including 6 strains of Enterococcus, 5 Staphylococcus aureus sensitive strains; 5 Staphylococcus epidermidis sensitive strains; 6 Staphylococcus aureus resistant strains; 5 Staphylococcus epidermidis resistant strains; and 4 Streptococcus pneumoniae resistant strains.
(§3) Compounds to be tested were first added 2 ml of DMSO to help them fully dissolved, then added sterile double distilled water to the desired concentration; to all the Petri dish with added drug liquid were added 20 mL MIT medium which was heat-melted to be liquid-like, to make the final drug concentration in the Petri dish to be 64, 32, 16, 8, 4, 2, 1, 0.5, 0.25, 0.125, 0.0625, and 0.031 μg/mL.
(§4) The positive control group was LZ (linezolid, brand name Zyvox, approved by the FDA in 2000 to be firstly sold in the United States, which is the first and also the only one of oxazolidinone antibacterial drugs allowed to enter clinical application).

[2] = tested on: Staphylococcus epidermidis resistant strains (5 strains); experiment: as above; assay type: cell-based; conditions: clinical isolates
Source text: as §1, §2, §3, §4

Enterococcus (6 strains) = experiment: as above; assay type: cell-based; conditions: clinical isolates, 35° C. 16 hrs
Source text: as §1, §2, §3, §4

[3] = tested on: Staphylococcus aureus sensitive strains (5 strains); experiment: as above; assay type: cell-based; conditions: clinical isolates
Source text: as §1, §2, §3, §4

[4] = tested on: Streptococcus pneumoniae resistant strains (4 strains); experiment: as above; assay type: cell-based; conditions: clinical isolates
Source text: as §1, §2, §3, §4

[5] = tested on: Staphylococcus epidermidis sensitive strains (5 strains); experiment: as above; assay type: cell-based; conditions: clinical isolates
Source text: as §1, §2, §3, §4

| SMILES | MIC [1] | MIC [2] | MIC (Enterococcus (6 strains)) | MIC [3] | MIC [4] | MIC [5] | melting point |
| --- | --- | --- | --- | --- | --- | --- | --- |
| Cc1cc(C#N)ncc1-c1ccc2c(c1)OC[C@H]1[C@H](CO)OC(=O)N21 [Compound 21, 5-((3R,3aS)-3-(hydroxylmethyl)-1-oxo-1,3,3a,4-tetrahydrobenzo[b]oxazolo[3,4-d][1,4]oxazin-7-yl)-4-methylpicolinonitrile] | 0.5 to 1 µg/mL (≈ 1.48 to 2.96 µM) | 0.25 to 1 µg/mL (≈ 0.741 to 2.96 µM) | 4 to 8 µg/mL (≈ 11.9 to 23.7 µM) | 0.25 to 0.5 µg/mL (≈ 0.741 to 1.48 µM) | 1 to 2 µg/mL (≈ 2.96 to 5.93 µM) | 0.25 to 0.5 µg/mL (≈ 0.741 to 1.48 µM) | 238 to 240 °C |
| Cc1cc(N2CCOC2=O)ncc1-c1ccc2c(c1)OC[C@H]1[C@H](CO)OC(=O)N21 [Compound 22, (3R,3aS)-3-(hydroxylmethyl)-7-(4-methyl-6-(2-oxooxazolidin-3-yl)pyridin-3-yl)-3a,4-dihydrobenzo[b]oxazolo[3,4-d][1,4]oxazin-1(3H)-one] | 0.5 to 1 µg/mL (≈ 1.26 to 2.52 µM) | 1 µg/mL (≈ 2.52 µM) | 4 to 16 µg/mL (≈ 10.1 to 40.3 µM) | 0.5 to 1 µg/mL (≈ 1.26 to 2.52 µM) | 2 µg/mL (≈ 5.03 µM) | 0.5 to 1 µg/mL (≈ 1.26 to 2.52 µM) | 245 to 246 °C |
| CN1CCC[C@H]2CN(c3ccc(-c4ccc5c(c4)OC[C@H]4[C@H](CO)OC(=O)N54)cn3)C[C@H]21 [Compound 23, (3R,3aS)-3-(hydroxylmethyl)-7-(6-((4aS,7aS)-1-methylhexaydro-1H-pyrrolo[3,4-b]pyridin-6(2H)-yl)pyridin-3-yl)-3a,4-dihydrobenzo[b]oxazolo[3,4-d][1,4]oxazin-1(3H)-one] | 8 µg/mL (≈ 18.3 µM) | 8 to 16 µg/mL (≈ 18.3 to 36.7 µM) | 16 µg/mL (≈ 36.7 µM) | 8 µg/mL (≈ 18.3 µM) | 16 µg/mL (≈ 36.7 µM) | 4 to 8 µg/mL (≈ 9.16 to 18.3 µM) | 169 to 171 °C |
| O=C1O[C@@H](CO)[C@@H]2COc3cc(-c4ccc(N5C[C@@H]6CCCN[C@@H]6C5)nc4)ccc3N12 [Compound 32, (3R,3aS)-7-(6-((4aS,7aS)-hexahydro-1H-pyrrolo[3,4-b]pyridin-6(2H)-yl)pyridin-3-yl)-3-(hydroxylmethyl)-3a,4-dihydrobenzo[b]oxazolo[3,4-d][1,4]oxazin-1(3H)-one] | 8 µg/mL (≈ 18.9 µM) | 4 to 8 µg/mL (≈ 9.47 to 18.9 µM) | 16 µg/mL (≈ 37.9 µM) | 4 to 8 µg/mL (≈ 9.47 to 18.9 µM) | 8 to 16 µg/mL (≈ 18.9 to 37.9 µM) | 4 to 8 µg/mL (≈ 9.47 to 18.9 µM) | 210 to 212 °C |
| NCC1CN(c2ccc(-c3ccc4c(c3)OC[C@H]3[C@H](CO)OC(=O)N43)cn2)C(=O)O1 (stereo partly drawn) [Compound 33, (3R,3aS)-7-(6-(5-(aminomethyl)-2-oxooxazolidin-3-yl)pyridin-3-yl)-3-(hydroxylmethyl)-3a,4-dihydrobenzo[b]oxazolo[3,4-d][1,4]oxazin-1(3H)-one] | 1 to 2 µg/mL (≈ 2.42 to 4.85 µM) | 2 µg/mL (≈ 4.85 µM) | 1 to 2 µg/mL (≈ 2.42 to 4.85 µM) | 1 to 2 µg/mL (≈ 2.42 to 4.85 µM) | 2 µg/mL (≈ 4.85 µM) | 0.5 to 1 µg/mL (≈ 1.21 to 2.42 µM) |  |
